The record followed here is ChEMBL document CHEMBL5120796, “A novel photocaged B-RafV600E inhibitor toward precise melanoma treatment” (Bioorg Med Chem Lett, 2022).

Calls of active or inactive are those of the source. The calls are words filed in the database; no cut-off is given here.

In data set [1] the test system is A-375. Kind of data set: Antiproliferative activity against human A-375 cells harboring B-RAF V600E mutant assessed as cell growth inhibition irradiated with 365 nm UV light for 0.5 mins measured after 72 hrs by CCK-8 analysis. Particulars: A-375, light or radiation study. Format: functional, cell-based.
The test system of data set [2] is A-375. Kind of data set: Antiproliferative activity against human A-375 cells harboring B-RAF V600E mutant assessed as cell growth inhibition measured after 72 hrs by CCK-8 analysis. Format: functional, cell-based. Particulars: A-375, 72 h.
Data set [3] relates to A-375. As to the kind of experiment: Antiproliferative activity against human A-375 cells harboring B-RAF V600E mutant assessed as cell growth inhibition irradiated with sun light for 2.5 mins measured after 72 hrs by CCK-8 analysis. Conditions: A-375, light or radiation study. In kind it is functional, cell-based.
The test system of data set [4] is A-375. Kind of data set: Antiproliferative activity against human A-375 cells harboring B-RAF V600E mutant assessed as cell growth inhibition irradiated with sun light for 5 mins measured after 72 hrs by CCK-8 analysis. In kind it is functional, cell-based. Conditions: A-375, light or radiation study.
Data set [5] concerns SK-MEL-1. Kind of data set: Antiproliferative activity against human SK-MEL-1 cells harboring […] B-RAF assessed as cell growth inhibition irradiated with 365 nm UV light for 5 mins measured after 72 hrs by CCK-8 analysis. Conditions: SK-MEL-1, light or radiation study. In kind it is functional, cell-based.
Data set [6] addresses Serine/threonine-protein kinase B-raf (Homo sapiens, UniProt P15056, V600E). Kind of data set: Inhibition of GST-tagged recombinant human B-RAF V600E mutant expressed in baculovirus expression system incubated for 1 hr in presence of ATP by FRET-based Z'-Lyte analysis.
Data set [7] has as its system A-375. Kind of data set: Antiproliferative activity against human A-375 cells harboring B-RAF V600E mutant assessed as cell growth inhibition irradiated with 365 nm UV light for 2.5 mins measured after 72 hrs by CCK-8 analysis. Format: functional, cell-based. Particulars: A-375, light or radiation study.
Data set [8] deals with A-375. Kind of data set: Antiproliferative activity against human A-375 cells harboring B-RAF V600E mutant assessed as cell growth inhibition irradiated with sun light for 0.5 mins measured after 72 hrs by CCK-8 analysis. In kind it is functional, cell-based. Particulars: A-375, light or radiation study.
Data set [9] has as its system SK-MEL-2. As to the kind of experiment: Antiproliferative activity against human SK-MEL-2 cells harboring wild type B-RAF assessed as cell growth inhibition irradiated with 365 nm UV light for 5 mins measured after 72 hrs by CCK-8 analysis. Format: functional, cell-based. Particulars: SK-MEL-2, light or radiation study.
Data set [10] relates to A-375. Kind of data set: Antiproliferative activity against human A-375 cells harboring B-RAF V600E mutant assessed as cell growth inhibition irradiated with 365 nm UV light for 10 mins measured after 72 hrs by CCK-8 analysis. Format: functional, cell-based. Conditions: A-375, light or radiation study.
The test system of data set [11] is A-375. As to the kind of experiment: Antiproliferative activity against human A-375 cells harboring B-RAF V600E mutant assessed as cell growth inhibition irradiated with sun light for 10 mins measured after 72 hrs by CCK-8 analysis. Format: functional, cell-based. Particulars: A-375, light or radiation study.
Data set [12] has as its system SK-MEL-2. Kind of data set: Antiproliferative activity against human SK-MEL-2 cells harboring wild type B-RAF assessed as cell growth inhibition measured after 72 hrs by CCK-8 analysis. Format: functional, cell-based. Particulars: SK-MEL-2, 72 h.
For data set [13], the system named is A-375. As to the kind of experiment: Inhibition of ERK phosphorylation in human A-375 cells at 0.1 to 10 uM incubated for 2 hrs irradiated with 365 nm UV light for 5 mins by Western blot analysis. Format: cell-based. Conditions: dose 0.1-10 µM.
In data set [14] the test system is SK-MEL-1. Kind of data set: Antiproliferative activity against human SK-MEL-1 cells harboring […] B-RAF assessed as cell growth inhibition measured after 72 hrs by CCK-8 analysis. Format: functional, cell-based. Conditions: SK-MEL-1, 72 h.
Data set [15] deals with A-375. Kind of data set: Antiproliferative activity against human A-375 cells harboring B-RAF V600E mutant assessed as cell growth inhibition irradiated with 365 nm UV light for 5 mins measured after 72 hrs by CCK-8 analysis. In kind it is functional, cell-based. Conditions: A-375, light or radiation study.
Data set [16] deals with A-375. As to the kind of experiment: Inhibition of ERK phosphorylation in human A-375 cells at 0.1 to 10 uM incubated for 2 hrs by Western blot analysis. Particulars: dose 0.1-10 µM. In kind it is cell-based. (A western blot detects proteins with antibodies after separation by electrophoresis.)
Data set [17] can be described thus: Retention time of compound in PBS buffer by UPLC analysis. Conditions: dose 5.85 µg/ml. Format: physicochemical.
A short description of data set [18]: Photorelease ability in PBS buffer assessed as N-(2,4-difluoro-3-((3-(4-fluorophenyl)-1H-pyrazolo[3,4-b]pyridin-5-yl)ethynyl)phenyl)pyridine-3-sulfonamide formation by measuring half life at 5.85 ug/ml irradiated with 365 nm UV light by UPLC analysis. Particulars: dose 5.85 µg/ml. Format: functional.
A short description of data set [19]: Photorelease ability in PBS buffer assessed as N-(2,4-difluoro-3-((3-(4-fluorophenyl)-1H-pyrazolo[3,4-b]pyridin-5-yl)ethynyl)phenyl)pyridine-3-sulfonamide formation by measuring half life at 5.85 ug/ml irradiated with sun light by UPLC analysis. Conditions: dose 5.85 µg/ml. Format: functional.

Serine/threonine-protein kinase B-raf, sequence (P15056 2-766 V600E limits assumed): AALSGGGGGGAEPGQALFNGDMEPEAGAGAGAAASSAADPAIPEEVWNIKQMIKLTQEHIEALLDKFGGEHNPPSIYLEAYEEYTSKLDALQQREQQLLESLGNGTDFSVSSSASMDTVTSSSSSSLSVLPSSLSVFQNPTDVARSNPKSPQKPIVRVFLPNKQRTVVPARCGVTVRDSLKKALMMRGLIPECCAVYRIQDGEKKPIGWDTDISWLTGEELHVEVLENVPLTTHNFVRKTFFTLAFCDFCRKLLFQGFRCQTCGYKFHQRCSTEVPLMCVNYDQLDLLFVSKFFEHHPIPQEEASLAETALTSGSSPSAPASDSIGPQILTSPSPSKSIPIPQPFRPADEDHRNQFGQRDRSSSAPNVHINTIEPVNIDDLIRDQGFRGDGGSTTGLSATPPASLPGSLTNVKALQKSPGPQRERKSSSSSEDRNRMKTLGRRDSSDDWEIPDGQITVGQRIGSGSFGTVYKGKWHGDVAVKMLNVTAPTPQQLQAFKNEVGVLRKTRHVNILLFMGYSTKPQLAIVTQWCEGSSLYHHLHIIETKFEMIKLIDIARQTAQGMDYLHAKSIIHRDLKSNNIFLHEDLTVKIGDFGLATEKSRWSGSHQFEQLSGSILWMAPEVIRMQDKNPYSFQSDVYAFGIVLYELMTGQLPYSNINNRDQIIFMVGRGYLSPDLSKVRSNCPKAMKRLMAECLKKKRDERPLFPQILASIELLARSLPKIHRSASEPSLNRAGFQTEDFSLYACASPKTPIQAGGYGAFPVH

As usually defined, the IC50 is the concentration needed to halve the response being measured. With `O=S(=O)(Nc1ccc(F)c(C#Cc2cnc3[nH]nc(-c4ccc(F)cc4)c3c2)c1F)c1cccnc1`, the IC50 in data set [1] turned out to be 190 nM; in data set [2], 210 nM; in data set [3] it was 160 nM; in data set [4] it was 170 nM; in data set [5], 560 nM; in [6], 21 nM. Moreover, the half-maximal inhibitory concentration (IC50) in data set [7] is 170 nM; in [8], 160 nM; in data set [9], over 10000 nM; in [10] it was 220 nM; in [11] it was 190 nM; in [12], over 10000 nM. Moreover, the half-maximal inhibitory concentration (IC50) in data set [14] came to 760 nM; in data set [15], 180 nM. For the same compound, the inhibition entry in [13] and in data set [16] was “Active” each time. Moreover, in data set [17], the Retention_time stood at 1.7 min.
For the compound `COc1cc(CN(c2ccc(F)c(C#Cc3cnc4[nH]nc(-c5ccc(F)cc5)c4c3)c2F)S(=O)(=O)c2cccnc2)c([N+](=O)[O-])cc1OC`, the IC50 was 700 nM in data set [1]; over 10000 nM in [2]; 340 nM in data set [3]; 280 nM in data set [4]; 840 nM in [5]; over 10000 nM in [6]. Further, the 50% inhibitory concentration (IC50) is 370 nM in [7]; 850 nM in data set [8]; over 10000 nM in data set [9]; 240 nM in data set [10]; 290 nM in data set [11]; over 10000 nM in [12]. In addition, the IC50 in [14] was over 10000 nM; in data set [15], 210 nM. Also, the results for the T1/2 in data set [18] and in [19] were 2 min and 2.8 min, respectively. For the same compound, the inhibition entry in [13] is “Active”. The Retention_time in data set [17] was 5.9 min.
